Test: mn = molality of the nth substance listed, in mol/kg
Conditions: 100 kPa, Liquid; for electrical conductivity: Alternating current cell with electrodes; for speed of sound: Frequency=3 MHz, Sing-around technique in a fixed-path interferometer; for mass density: Vibrating tube method

CCCCn1cc[n+](C)c1C.F[B-](F)(F)F [1-butyl-2,3-dimethylimidazolium tetrafluoroborate] + O
Conditions	electrical conductivity [S/m]	mass density [kg/m3]	speed of sound [m/s]
288.15 K, m1 = 0.03	0.229	–	–
288.15 K, m1 = 0.0308	–	1000.29	1471.8
288.15 K, m1 = 0.0312	0.236	–	–
288.15 K, m1 = 0.0324	0.245	–	–
288.15 K, m1 = 0.0338	0.256	–	–
288.15 K, m1 = 0.0353	0.265	–	–
288.15 K, m1 = 0.0369	0.276	–	–
288.15 K, m1 = 0.0386	0.288	–	–
288.15 K, m1 = 0.0406	0.303	–	–
288.15 K, m1 = 0.04107	–	1000.68	1474.2
288.15 K, m1 = 0.0427	0.319	–	–
288.15 K, m1 = 0.0451	0.336	–	–
288.15 K, m1 = 0.0477	0.355	–	–
288.15 K, m1 = 0.0507	0.375	–	–
288.15 K, m1 = 0.05137	–	1001.08	1476.5
288.15 K, m1 = 0.0541	0.399	–	–
288.15 K, m1 = 0.058	0.427	–	–
288.15 K, m1 = 0.06162	–	1001.46	1478.6
288.15 K, m1 = 0.0624	0.457	–	–
288.15 K, m1 = 0.0677	0.491	–	–
288.15 K, m1 = 0.07	0.508	–	–
288.15 K, m1 = 0.0725	0.526	–	–
288.15 K, m1 = 0.0752	0.542	–	–
288.15 K, m1 = 0.0781	0.564	–	–
288.15 K, m1 = 0.0812	0.586	–	–
288.15 K, m1 = 0.08198	–	1002.23	1482.5
288.15 K, m1 = 0.0846	0.608	–	–
288.15 K, m1 = 0.0882	0.634	–	–
288.15 K, m1 = 0.0922	0.661	–	–
288.15 K, m1 = 0.0966	0.688	–	–
288.15 K, m1 = 0.1014	0.713	–	–
288.15 K, m1 = 0.1024	–	1002.99	1485.2
288.15 K, m1 = 0.1068	0.745	–	–
288.15 K, m1 = 0.1127	0.772	–	–
288.15 K, m1 = 0.1193	0.806	–	–
288.15 K, m1 = 0.1231	–	1003.74	1486.4
288.15 K, m1 = 0.1267	0.846	–	–
288.15 K, m1 = 0.1352	0.891	–	–
288.15 K, m1 = 0.1436	–	1004.47	1487.1
288.15 K, m1 = 0.1448	0.941	–	–
288.15 K, m1 = 0.1559	0.997	–	–
288.15 K, m1 = 0.164	–	1005.19	1487.7
288.15 K, m1 = 0.1688	1.06	–	–
288.15 K, m1 = 0.1841	1.14	–	–
288.15 K, m1 = 0.1846	–	1005.91	1488.2
288.15 K, m1 = 0.2025	1.23	–	–
288.15 K, m1 = 0.205	–	1006.62	1488.7
298.15 K, m1 = 0.0306	0.247	–	–
298.15 K, m1 = 0.0308	–	998.165	1500.7
298.15 K, m1 = 0.031	0.249	–	–
298.15 K, m1 = 0.0323	0.259	–	–
298.15 K, m1 = 0.0337	0.27	–	–
298.15 K, m1 = 0.0352	0.28	–	–
298.15 K, m1 = 0.0368	0.291	–	–
298.15 K, m1 = 0.0387	0.305	–	–
298.15 K, m1 = 0.0407	0.319	–	–
298.15 K, m1 = 0.04107	–	998.537	1502.3
298.15 K, m1 = 0.0429	0.334	–	–
298.15 K, m1 = 0.0454	0.351	–	–
298.15 K, m1 = 0.0472	0.366	–	–
298.15 K, m1 = 0.0491	0.379	–	–
298.15 K, m1 = 0.0513	0.395	–	–
298.15 K, m1 = 0.05137	–	998.909	1504
298.15 K, m1 = 0.0536	0.413	–	–
298.15 K, m1 = 0.0562	0.432	–	–
298.15 K, m1 = 0.0575	0.441	–	–
298.15 K, m1 = 0.059	0.45	–	–
298.15 K, m1 = 0.0605	0.462	–	–
298.15 K, m1 = 0.06162	–	999.277	1505.7
298.15 K, m1 = 0.0621	0.472	–	–
298.15 K, m1 = 0.0637	0.485	–	–
298.15 K, m1 = 0.0655	0.498	–	–
298.15 K, m1 = 0.0674	0.513	–	–
298.15 K, m1 = 0.0694	0.528	–	–
298.15 K, m1 = 0.0715	0.54	–	–
298.15 K, m1 = 0.0737	0.557	–	–
298.15 K, m1 = 0.0761	0.575	–	–
298.15 K, m1 = 0.0786	0.595	–	–
298.15 K, m1 = 0.0813	0.615	–	–
298.15 K, m1 = 0.08198	–	1000	1509
298.15 K, m1 = 0.0842	0.636	–	–
298.15 K, m1 = 0.0874	0.658	–	–
298.15 K, m1 = 0.0907	0.682	–	–
298.15 K, m1 = 0.0943	0.708	–	–
298.15 K, m1 = 0.0983	0.735	–	–
298.15 K, m1 = 0.1024	–	1000.72	1511.6
298.15 K, m1 = 0.1026	0.761	–	–
298.15 K, m1 = 0.1072	0.787	–	–
298.15 K, m1 = 0.1123	0.816	–	–
298.15 K, m1 = 0.1179	0.847	–	–
298.15 K, m1 = 0.1231	–	1001.43	1512.3
298.15 K, m1 = 0.1242	0.881	–	–
298.15 K, m1 = 0.1311	0.92	–	–
298.15 K, m1 = 0.1388	0.962	–	–
298.15 K, m1 = 0.1436	–	1002.11	1513
298.15 K, m1 = 0.1474	1.01	–	–
298.15 K, m1 = 0.1573	1.06	–	–
298.15 K, m1 = 0.164	–	1002.79	1513.5
298.15 K, m1 = 0.1685	1.12	–	–
298.15 K, m1 = 0.1815	1.19	–	–
298.15 K, m1 = 0.1846	–	1003.47	1514
298.15 K, m1 = 0.1966	1.27	–	–
298.15 K, m1 = 0.205	–	1004.13	1514.6
298.15 K, m1 = 0.2145	1.35	–	–
308.15 K, m1 = 0.0308	–	995.089	1523
308.15 K, m1 = 0.0309	0.278	–	–
308.15 K, m1 = 0.032	0.287	–	–
308.15 K, m1 = 0.0333	0.299	–	–
308.15 K, m1 = 0.0347	0.305	–	–
308.15 K, m1 = 0.0362	0.32	–	–
308.15 K, m1 = 0.0379	0.331	–	–
308.15 K, m1 = 0.0397	0.344	–	–
308.15 K, m1 = 0.04107	–	995.443	1524.2
308.15 K, m1 = 0.0417	0.359	–	–
308.15 K, m1 = 0.0439	0.378	–	–
308.15 K, m1 = 0.0463	0.396	–	–
308.15 K, m1 = 0.049	0.415	–	–
308.15 K, m1 = 0.05137	–	995.796	1525.5
308.15 K, m1 = 0.0521	0.437	–	–
308.15 K, m1 = 0.0556	0.462	–	–
308.15 K, m1 = 0.0596	0.493	–	–
308.15 K, m1 = 0.06162	–	996.146	1526.8
308.15 K, m1 = 0.0642	0.531	–	–
308.15 K, m1 = 0.0695	0.568	–	–
308.15 K, m1 = 0.0719	0.585	–	–
308.15 K, m1 = 0.0745	0.603	–	–
308.15 K, m1 = 0.0772	0.624	–	–
308.15 K, m1 = 0.0802	0.649	–	–
308.15 K, m1 = 0.08198	–	996.836	1529
308.15 K, m1 = 0.0834	0.673	–	–
308.15 K, m1 = 0.0869	0.698	–	–
308.15 K, m1 = 0.0906	0.727	–	–
308.15 K, m1 = 0.0947	0.756	–	–
308.15 K, m1 = 0.0992	0.788	–	–
308.15 K, m1 = 0.1024	–	997.517	1531.1
308.15 K, m1 = 0.1042	0.819	–	–
308.15 K, m1 = 0.1097	0.851	–	–
308.15 K, m1 = 0.1158	0.883	–	–
308.15 K, m1 = 0.1225	0.919	–	–
308.15 K, m1 = 0.1231	–	998.186	1531.7
308.15 K, m1 = 0.1302	0.965	–	–
308.15 K, m1 = 0.1388	1.01	–	–
308.15 K, m1 = 0.1436	–	998.836	1532.1
308.15 K, m1 = 0.1487	1.07	–	–
308.15 K, m1 = 0.1602	1.13	–	–
308.15 K, m1 = 0.164	–	999.479	1532.5
308.15 K, m1 = 0.1735	1.2	–	–
308.15 K, m1 = 0.1846	–	1000.13	1533
308.15 K, m1 = 0.1892	1.29	–	–
308.15 K, m1 = 0.205	–	1000.75	1533.6
308.15 K, m1 = 0.208	1.4	–	–

Source: the NIST ThermoML archive (doi:10.1016/j.tca.2014.10.001)
